Test results from patent US11647752B2 (priority 2020, dated 2023).
Values joined by “and” are separate entries in the source; they are usually repeats but may differ in a detail not shown here. Equal values may be shown once. Read-outs that look alike come from different tables or passages of the source.

Columns and labels:
[1] = tested on: Ralstonia solanacearum in tobacco roots; assay type: in vivo; conditions: for Amount of Ralstonia solanacearum in the roots: 12 h of inoculation
[2] = tested on: Ralstonia solanacearum (tobacco bacterial wilt pathogen HF-1-1); assay type: cell-based; conditions: 50 μL per hole, 37° C., 12 h
[3] = tested on: Ralstonia solanacearum (pathogen HF-1-1); assay type: cell-based; conditions: NaHS 0, 200, 400, 600, 800 mg/L in liquid culture, 12 h, 37° C.

| Compound | Amount of Ralstonia solanacearum in the roots ([1]; N- (10 mL 0.8 mmol hydroxylamine)) | Diameter of inhibition zone ([2]; NaHS 200 mg/L) | Diameter of inhibition zone ([2]; NaHS 400 mg/L) | Diameter of inhibition zone ([2]; NaHS 600 mg/L) | Diameter of inhibition zone ([2]; NaHS 800 mg/L) | Biomass of the pathogen HF-1-1 (OD600) [3] | Amount of Ralstonia solanacearum in the roots ([1]; N200 (NaHS 200 mg/L)) | Content of Ralstonia solanacearum in the tobacco roots compared with CK and N- groups ([1]; N200-N800 (NaHS 200-800 mg/L), 24 h and 36 h) | Amount of Ralstonia solanacearum in the roots ([1]; N400 (NaHS 400 mg/L)) | Amount of Ralstonia solanacearum in the roots ([1]; N600 (NaHS 600 mg/L)) | Amount of Ralstonia solanacearum in the roots ([1]; N800 (NaHS 800 mg/L)) | Decrease of number of Ralstonia solanacearum colonized on tobacco roots compared with control group ([1]; NaHS 800 mg/L, 36 hours) [%] |
| --- | --- | --- | --- | --- | --- | --- | --- | --- | --- | --- | --- | --- |
| NO [H2S inhibitor, hydroxylamine, reference compound] | 1.38 ×10^4 CFU/g |  |  |  |  |  |  |  |  |  |  |  |
| [Na+].[SH-] [NaHS] |  | 11.20±0.72 mm and 11.20 mm | 14.61±0.93 mm and 14.61 mm | 19.43±0.41 mm and 19.43 mm | 21.21±1.22 mm and 21.21 mm | decreased with the increase of its concentration | 1.36 ×10^4 CFU/g | relatively lower | 1.39 ×10^4 CFU/g | 1.40 ×10^4 CFU/g | 1.37 ×10^4 CFU/g | 98.32 |
